Results on 3 molecules are retold here after patent US7166582B2, “Antiallergic composition” (J-Oil Mills, Inc., priority 2003, dated 2007).

One experiment has as its system IgE. To be noted: Japanese Patent Application Laid-open No. 2001-288093; cited from earlier work.
The test system of the next experiment is atopic dermatitis. The settings on record: Japanese Patent Application Laid-open No. Hei 11-255656; cited from earlier work.
The test system of experiment [1] is dermatitis induced by repeated application of hapten on an NC/Nga mouse. Briefly: Performance Evaluation Test 1: dermatitis induced by repeated application of hapten (PiCl) on NC/Nga mice. The settings on record: 0.5% in AIN93G feed; for score of dermatitis (progress of the atopic dermatitis): PiCl induction once a week for five weeks, vs control group, FIGS. 1 and 2. Format: in vivo, NC/Nga Tnd Crj male mice. Here is the method:
The performance of stachyose mixed in livestock feeds was evaluated against the dermatitis induced by repeated application of hapten on an NC/Nga mouse frequently used as an atopic dermatitis model animal (M. Okada et al., Oyo Yakuri/Pharmcometrics, vol. 59, 135–139 (2000)).
(§1) NC/Nga Tnd Crj male mice at six weeks of age (purchased from Nihon Charles River) were habituated for two weeks. The animals decided as healthy were used for the experiments after an observation of general conditions and body weight measurement. The mice were divided into three groups so that the body weight was averaged. One group was composed of nine mice. A purified livestock feed (AIN93G produced by Oriental Yeast Co.) was used as a basic feed. The mice in Group 1 (a control group) was fed with the purified feed, while the mice in Groups 2 and 3 were fed with a feed prepared by adding the test samples as shown In Table 1 in the basic feed.
Stachyose used in this test was purified to a purity of 98% by ion exchange chromatography after extracting from soybeans with 70% ethanol. Saccharose used in this test was purchased from Wako Junyaku Kabushiki Kaisha.
The mice at eight weeks of age were used for sensation as follows. […]
The symptoms of the atopic dermatitis were observed as follows. The skin condition was observed twice a week starting from a day before the first induction, and the following items were evaluated based on the criteria of clinical syndromes of the human atopic dermatitis. […]
(§2) The score of dermatitis, serum total IgE concentration, and the average body weight and standard deviation thereof were calculated. The significant difference was evaluated by the Student's t-test. A significance level of 5% was evaluated as significant, and the results of the Student's t-test were expressed by dividing into a level of less than 5% (P<0.05) and less than 1% (P<0.01).

A further experiment has as its system serum total IgE. Briefly: Serum total IgE concentration by EIA in PiCl-sensitized NC/Nga mice. Format: in vivo, NC/Nga Tnd Crj male mice. To be noted: 0.5% in AIN93G feed; blood on 43rd day after administration; vs control group; FIG. 4.
Source text: as §1
The serum total IgE concentration was measured as follows. The blood was extracted on day four before administration, and on 43 rd day after administration (the day for starting administration is counted as the first day). The blood (200 μL) is sampled from the orbital plexus venosus using a heparinated capillary. […]
as §2

Experiment [2] relates to conventional grade NC/Nga mice that spontaneously start the atopic dermatitis. The experiment in a line: Performance Evaluation Test 2: spontaneous atopic dermatitis in conventional grade NC/Nga mice. The settings on record: feed supplemented with 1% stachyose. Format: in vivo, Conventional grade female NC/Nga mice. From the text:
The effect of stachyose on the dermatitis was investigated using conventional grade NC/Nga mice that spontaneously start the atopic dermatitis without applying any haptens (H. Matsuda et al., International Immunology, vol. 9, 461–466 (1997)).
Conventional grade female NC/Nga mice at four weeks of age (purchased from Nihon SLC) were habituated for one week. The mice were divided into two groups so that the body weight was averaged. One group was composed of six mice. All the mice were freely fed on the purified livestock feed (AIN93G) before grouping, and the stachyose administration group was fed on a feed supplemented with 1% stachyose after grouping. The skin conditions were observed and evaluated once per two weeks from the day of start of grouping. The evaluation method was the same as in performance evaluation method 1.

The structures appear in SMILES notation.

Take `OC[C@H]1O[C@H](OC[C@H]2O[C@H](O[C@]3(CO)O[C@H](CO)[C@@H](O)[C@@H]3O)[C@H](O)[C@@H](O)[C@@H]2O)[C@H](O)[C@@H](O)[C@H]1O` [raffinose]: the “production of IgE” value in the experiment on IgE was “has an action for suppressing production of IgE”. Further, the anti-atopic dermatitis action result in the experiment on atopic dermatitis is “has an anti-atopic dermatitis action”.
For the molecule `OC[C@H]1O[C@@](CO)(O[C@H]2O[C@H](CO)[C@@H](O)[C@H](O)[C@H]2O)[C@@H](O)[C@@H]1O` [saccharose, reference compound], the “score of dermatitis (progress of the atopic dermatitis)” value in experiment [1] is “No effects were observed”.
With `OC[C@H]1O[C@H](OC[C@H]2O[C@H](OC[C@H]3O[C@H](O[C@]4(CO)O[C@H](CO)[C@@H](O)[C@@H]4O)[C@H](O)[C@@H](O)[C@@H]3O)[C@H](O)[C@@H](O)[C@H]2O)[C@H](O)[C@@H](O)[C@H]1O` [stachyose], the “score of dermatitis (progress of the atopic dermatitis)” value in experiment [1] is reported as “progress of the atopic dermatitis was evidently blocked”. Moreover, the “appearance of the skin (photograph of representative mouse)” value in experiment [1] (compared with the control group (Group 1), FIG. 3) is “An evident difference of the appearance of the skin was observed”. The “level of serum total IgE” value with serum total IgE was “does not influence the level of IgE”. Also, the onset of dermatitis result in experiment [2] (6 to 8 weeks after grouping, control: evident dermatitis on face and ears) is reported as “no onset of dermatitis was observed at all”; in experiment [2] (week four after grouping, control: five of six mice with dermatitis on the face) it was “no onset of the dermatitis was observed”. Besides, the scores of dermatitis entry in experiment [2] (FIG. 5) is on record as “the effect of stachyose is evident”.
